Consider three compounds from paper PMC11741003 (ACS Chemical Neuroscience, 2024).

Residues, ends and D or L forms follow the SMILES beside them.

Data set [1] can be described thus: BBB in vitro model: primary culture of rat brain microvascular endothelial cells (RBMECs) on inserts, astrocyte-conditioned medium in the basal compartment. To be noted: Wistar rat, up to 25 h.
Data set [2] relates to rat brain microvascular endothelial cells (RBMECs). The experiment in a line: Transendothelial electrical resistance (TEER) in the BBB in vitro model. In kind it is cell-based. To be noted: RBMEC monolayers.
Data set [3] has the same test system.
A further data set concerns the target PrP(92–99) (Homo sapiens, UniProt P04156). To be noted: pH 7.4.
In another data set the target is PrP(106–115) (Homo sapiens, UniProt P04156). To be noted: pH 7.4.
The test system of the next data set is Aβ(1–16). To be noted: 1 equiv of TP; EPR; cited from earlier work. From the text: Although Aβ(1–X) species are the most studied, N-truncated Aβ peptides, such as Aβ(4–X) species (Figure 4A), are highly abundant Aβ isoforms detected in both healthy and AD brains.[58]−[60] Although both peptides bind Cu^2+, their coordination properties and reactivities are completely different.

Another data set has as its target T1, Aβ(1–40) (Homo sapiens, UniProt P05067).
T1 construct: impact the mechanism of Cu^2+-induced aggregation of Aβ(1–40)
To be noted: cited from earlier work. From the text: Scheme 1 TP Holds Therapeutic Potential against AD TP is a tetrapeptide with the sequence MDDWAib. The MD sequence binds Cu^2+ with high affinity (A). […] These findings support a therapeu ...

Data set [4] relates to rat brain microvascular endothelial cells (RBMECs). Kind of data set: Peptide recovery (HPLC) from apical and basal compartments of the BBB in vitro model. To be noted: peptide alone, apical administration; quantified after 8 and 25 h; HPLC-UV.

T1 sequence (P05067 672-711 limits assumed): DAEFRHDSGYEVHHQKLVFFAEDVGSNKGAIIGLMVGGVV

Consider NH2-MDDWAib-Am, for which, in data set [1], the cleaved bond result is given as “Met1-Asp2, major, 3.5 h”.
Consider NH2-MDDWAib-Am [TP], for which, in data set [2] (TP alone), the “Effect on TEER” value is “no effect”. In addition, in data set [3], the “Main degradation product in the BBB model” value is “DDWAib”, the “TP degradation in the BBB model” value is “rapidly degraded” and the “TP passage across the BBB model” value was “cannot cross the BBB without P10”. For the same compound, at PrP(92–99) (1 equiv of TP), the “Fraction of Cu2+-PrP(92–99) complex in EPR deconvolution” value is given as 40%, the “Fraction of Cu2+-TP complex in EPR deconvolution” value turned out to be 30% and the “Fraction of ternary TP-Cu2+-PrP(92–99) complex in EPR deconvolution” value stood at 30%. On PrP(92–99) (2 equiv of TP), the “Fraction of Cu2+-TP in EPR simulation” value is on record as 20% and the “Fraction of ternary TP-Cu2+-PrP(92–99) complex in EPR simulation” value is reported as 80%. At PrP(106–115) (1 equiv of TP), the “Fraction of Cu2+-PrP(106–115) complex in EPR deconvolution” value was 30%, the “Fraction of Cu2+-TP complex in EPR deconvolution” value stood at 50% and the “Fraction of ternary TP-Cu2+-PrP(106–115) complex in EPR deconvolution” value was 20%. Further, at PrP(106–115) (2 equiv of TP), the “Fraction of Cu2+-TP in EPR simulation” value is reported as 40% and the “Fraction of ternary TP-Cu2+-PrP(106–115) complex in EPR simulation” value is 60%. For the same compound, the “Removal of Cu2+ from Cu2+-Aβ(1–16)” value in the data set on Aβ(1–16) is listed as “removes the metal ion”. The “Effect on Cu2+-induced aggregation of Aβ(1–40)” value at Aβ(1–40) is “impacts the Cu^2+-induced aggregation of Aβ(1–40)”. Also, the “Detection in apical and basal compartments” value in data set [4] is recorded as “detected in the apical but not in the basal compartment”.
Consider `CC(C)C[C@H](NC(=O)[C@@H](N)CCCCN)C(=O)N[C@@H](Cc1ccc(O)cc1)C(=O)O` [P10] (H-Lys-Leu-Tyr-OH), for which the “Decrease of TEER with respect to control monolayers” value in data set [2] (P10 alone, CellZscope continuous measurement) was “approximately 30%”; in data set [2] (P10 together with TP) it was “approximately 30%”.
